We go through three compounds from patent US20130095059A1, “INHALED NO DONOR KMUPS DERIVATIVE PREVENTING ALLERGIC PULMONARY VASCULAR AND BRONCHIAL INFLAMMATION VIA SUPPRESSED CYTOKINES, INOS AND INFLAMMATORY CELL COUNTS IN ASTHMA MODEL” (priority 2007, published 2013).

One assay concerns ROCK. Nature of the assay: 5-HT-induced ROCK expression in PASMCs. The class given is cell-based, Wistar rats. The settings on record: 10 μM. The procedure: PASMCs were stimulated with 5-HT or not, as indicated. Cells were treated with KMUP-1 for 24 h before 5-HT stimulation. Whole lysates were collected and resolved by SDS-PAGE as previously described. Primary antibodies were anti-β-actin at: 1:10,000 dilution and anti-RhoA, anti-ROCK, antiphospho-ERK1/2, anti-phospho-AKT, anti-ERK1/2, anti-AKT, anti-5HTT, anti-5-HT2B and anti-eNOS at 1:1000. All blots were incubated with antibodies at 4° C. overnight. After being washed, the appropriate secondary antibodies were added at a dilution of 1:1000 for 1 h at room temperature. After extensive washing, blots were developed with a Super Signal enhanced chemiluminescence kit (Biorad, CA, USA) and visualized on Kodak AR film.
The expression of RhoA/ROCK and phosphorylation of ERK1/2 and AKT kinase in PASMCs were assessed by incubating the PASMCs with 5-HT (10 μM) for 15 min (peak time for RhoA/ROCK, ERK1/2 and AKT phosphorylation) and 5-HTT for 10 min (peak time for 5-HTT) after KMUP-1 (1-100 μM) was added to the culture of PASMCs for 24 h.

For the next assay, the system named is iNOS. The experiment in a line: Ovalbumine model, iNOS expression. Format: in vivo, BALB/c mice. The settings on record: non-treatment allergic animal 100 %.
Another assay concerns IL-5. The experiment in a line: Ovalbumine model, plasma IL-5 (ELISA). The class given is in vivo, mice. The settings on record: OVA-sens; oral 2.5 mg Kg^−1; OVA-sens alone 43 ± 6. The procedure: (§1) In this long-term experiment, 6-8 week old BALB/c female mice were sensitized on days 1 and 8 by intra-peritoneal injection (i.p.) of ovalbumine (10 μg) (Sigma-Aldrich, Schnelldorf, Germany) adsorbed to 2 mg aluminum hydroxide (AlumInject; Perbio, Erembodegem, Belgium). Mice were divided into three groups. In Group 1, a control group was only exposed to saline nebulization by aerosol. The other 2 groups were subjected to ovalbumine (1%) nebulization. Before each challenge with ovalbumine, mice were either exposed to saline nebulization (Group 2) or KMUP-1 nebulization (5 mM) for 30 min by aerosol (Group 3).
(In general: An ELISA detects its analyte on a solid surface through an enzyme-linked reagent.)

Another assay concerns IL-13. The experiment in a line: Ovalbumine model, plasma IL-13 (ELISA). The class given is in vivo, mice. The settings on record: OVA-sens; oral 2.5 mg Kg^−1; OVA-sens alone 35 ± 6. The procedure: as §1
In assay [1] the test system is MMP-9. Nature of the assay: Ovalbumine model, MMP-9 expression, zymography and immunostaining. The class given is in vivo, BALB/c mice. The settings on record: oral 2.5 mg Kg^−1; non-treatment allergic animal 100 %.
Assay [2] concerns BALF cells. The experiment in a line: Ovalbumine model, bronchoalveolar lavage cell counts. The class given is in vivo, BALB/c mice. The settings on record: oral 2.5 mg Kg^−1; for Neurophil: OVA 1.0 ± 0.2; for Lymphocyte / monocyte: OVA 2.4 ± 0.3; for (Table 5) / Eosinophil: OVA 37.2 ± 2.8; for Total cells: OVA 65.3 ± 3.4.
In a further assay the test system is eNOS. The experiment in a line: Protein expression (optical density %) after KMUPs salts, eNOS. The class given is cell-based. The settings on record: 10 μM, 120 min; without treatment control 100 %.
In the next assay the test system is PDE-5A. Nature of the assay: Protein expression (optical density %) after KMUPs salts, PDE-5A. Format: cell-based. The settings on record: 10 μM, 120 min; without treatment control 100 %.
A further assay relates to ROCKII. The experiment in a line: Protein expression (optical density %) after KMUPs salts, ROCKII. The class given is cell-based. The settings on record: 10 μM, 120 min; without treatment control 100 %.
Assay [3] has as its system MMP-9. The experiment in a line: Ovalbumine model, MMP-9 expression, zymography and immunostaining. Format: in vivo, BALB/c mice. The settings on record: inhalation 5 mM; non-treatment allergic animal 100 %. As to the method:
as §1
The gelatinolytic activity of MMP-9 was measured by gelatin zymography as described previously (Cataldo D D, et al., 2002). Briefly, BALF (10 μl) was subjected to electrophoresis in 10% polyacrylamide gel containing gelatin (1 mg/ml). The gel was washed in 2.5% Triton X-100 to permit re-naturation of gelatinases and stained with Coomassie blue after overnight incubation. Destaining visualized clear zones of lysis against a blue background indicated the gelatinase activity (Hibbs, M S, et al., 1985).
The lung tissues were homogenized, washed with PBS and incubated in lysis buffer in addition to a protease inhibitor cocktail (Sigma, St. Louis, Mo.) to obtain extracts of lung proteins. A Western blot analysis was performed as described previously (Wu B N, et al., 2006). The samples were loaded to 10% SDS-PAGE gels and were separated at 120 V for 90 min. The blots were incubated with anti-eNOS antibody diluted at a ratio of 1:500, anti-sGCα1 antibody diluted at a ratio of 1:2000, anti-PKG antibody diluted at a ratio of 1:500, anti-VCAM-1 antibody diluted at a ratio of 1:500, anti-ICAM-1 antibody diluted at a ratio of 1:500, and anti-MMP-9 antibody diluted at a ratio of 1:600 overnight at 4° C. The membranes were stripped and re-blotted with anti-actin antibody (Sigma, St. Louis, Mo.) to verify the equal loading of protein in each lane.
Immunohistochemical analysis of eNOS enhancement by KMUP-1 was performed as follows. The lungs were perfused with saline followed by 10% formalin and then placed in 10% formalin for paraffin embedding. The lung tissues were cut into […] sections onto slides, dewaxed in 100% xylene, and then re-hydrated in graded alcohol solutions. Throughout the procedures, slides were washed as appropriate in PBS. Antigen retrieval was performed by microwave treatment for eNOS immunostaining. Sections were treated with 3% H2O2 (10 min) to inhibit endogenous peroxidases and incubated with normal serum (60 min) to reduce nonspecific binding of secondary antibodies. Sections were then incubated at 4° C. overnight with eNOS antibodies. After washing off unbounded primary antibodies, sections were incubated with secondary biotinylated antibodies against mouse or rabbit (DAKO Co., Japan) (60 min), followed by incubation in avidin/biotin/horseradish peroxidase complex (DAKO Co., Japan) (30 min) Subsequently, peroxidase activity was visualized by incubation (3 min) with 0.05% 3,3′-diaminobenzidine (DAKO Co., Japan), which gives a brown reaction product. The reaction was stopped by washing with water. The slides were counterstained with hematoxylin. For immunostaining of MMP-9 in lung tissue, the de-paraffinized 3-5 μm sections of lung tissue was performed as above eNOS, but using MMP-9 antibody.

Assay [4] relates to BALF cells. Nature of the assay: Ovalbumine model, bronchoalveolar lavage cell counts. Format: in vivo, BALB/c mice. The settings on record: inhalation 5 mM. The procedure:
as §1
After the sacrifice of mice, a cannula was placed in the trachea for bronchoalveolar lavage by gentle manual aspiration, using cold PBS-EDTA (0.05 mM, 1 ml) (Calbiochem, Darmstadt, Germany) as previously described (Cataldo D D, et al., 2002). The broncho alveolar lavage fluid (BALF) was centrifuged at 4° C. for 10 min (1200 rpm). The supernatant was frozen at −80° C. for protein assessment and the cell pellet was resuspended in PBS-EDTA (0.05 mM, 1 ml). Total cell counts were performed manually using a thoma chamber. The differential cell counts were performed using morphologic criteria on cytocentrifuged preparations (Cytospin) after staining with Diff-Quick (Dade, Belgium). Differential cell counts were performed by one blinded observer unaware of the experimental treatment.

As for `C[C@@H](N)[C@H]1CC[C@H](C(=O)Nc2ccncc2)CC1` [Y27632, reference compound], in the assay with ROCK, the ROCK expression entry is given as “inhibited”.
In the case of `CCC(C)(C)C(=O)O[C@H]1C[C@@H](C)C=C2C=C[C@H](C)[C@H](CC[C@@H]3C[C@@H](O)CC(=O)O3)[C@H]21` [Simvastatin, reference compound], in the assay with iNOS (oral 2.5 mg Kg^−1), the iNOS is on record as 58 ± 12.4%. In the assay on IL-5, this compound registered an IL-5 of 158 ± 12.4 pg/mL. In the assay with IL-13, this compound gave an IL-13 of 41 ± 2.5 pg/mL. In addition, the MMP-9 in the assay on MMP-9 [1] amounted to 41 ± 2.5%. Moreover, in the assay with BALF cells [2], the Neurophil is 1.5 ± 0.4 × 10^4 cell/ml, the Lymphocyte is on record as 1.8 ± 0.7 × 10^4 cell/ml, the monocyte is listed as 1.8 ± 0.7 × 10^4 cell/ml and the “(Table 5)” value was 27 ± 1.6 × 10^4 cell/ml. In the assay with BALF cells [2], the Eosinophil is reported as 27 ± 1.6 × 10^4 cell/ml and the Total cells is 52.5 ± 0.4 × 10^4 cell/ml.
Turning to `Cl.Cn1c(=O)c2c(ncn2CCN2CCN(c3ccccc3[N+](=O)[O-])CC2)n(C)c1=O` [KMUP-4 HCl, 7-[2-[4-(2-nitrobenzene)piperazinyl]ethyl]-1,3-dimethylxanthine hydrochloride], the “eNOS protein expression, optical densitivity %” value in the assay on eNOS turned out to be 135 ± 7.5%. The “PDE-5A protein expression, optical densitivity %” value in the assay on PDE-5A turned out to be 73 ± 3.4%. In addition, in the assay with ROCKII, the “ROCKII protein expression, optical densitivity %” value was 37 ± 2.8%. Also, the iNOS in the assay on iNOS (inhalation 5 mM) is recorded as 35 ± 7.5%; in the assay on iNOS (oral 2.5 mg Kg^−1) it was 31 ± 6.7%. The MMP-9 came out at 37 ± 2.8% with MMP-9 [3] and 56 ± 3.4% in the assay with MMP-9 [1]. Moreover, the Neurophil in the assay on BALF cells [4] (OVA 1.0 ± 0.2) is 1.1 ± 0.2 × 10^4 cell/ml; in the assay with BALF cells [2], 1.1 ± 0.3 × 10^4 cell/ml. For the same compound, the Lymphocyte in the assay on BALF cells [4] (OVA 2.4 ± 0.3) was 1.6 ± 3.4 × 10^4 cell/ml; in the assay with BALF cells [2], 1.7 ± 1.8 × 10^4 cell/ml. Besides, the monocyte was 1.6 ± 3.4 × 10^4 cell/ml in the assay on BALF cells [4] (OVA 2.4 ± 0.3) and 1.7 ± 1.8 × 10^4 cell/ml with BALF cells [2]. Also, the “(Table 5)” value is listed as 21 ± 6.7 × 10^4 cell/ml in the assay on BALF cells [4] (OVA 37.2 ± 2.8) and 20 ± 3.5 × 10^4 cell/ml in the assay with BALF cells [2]. Also, the Eosinophil in the assay on BALF cells [4] (OVA 37.2 ± 2.8) was 21 ± 6.7 × 10^4 cell/ml; in the assay on BALF cells [2], 20 ± 3.5 × 10^4 cell/ml. Further, the Total cells in the assay with BALF cells [4] (OVA 65.3 ± 3.4) is on record as 53.4 ± 0.3 × 10^4 cell/ml; in the assay with BALF cells [2] it was 51.8 ± 0.4 × 10^4 cell/ml.
